In test [1] the target is T1, D(1A) dopamine receptor (Homo sapiens, UniProt P21728). Briefly: Displacement of [3H]SCH23390 from human dopamine D1 receptor expressed in HEK293 cells. It is filed as cell-based. In general terms: Displacement assays read how much labelled ligand stays bound in the presence of the test substance.
The target of test [2] is T1, D(1A) dopamine receptor. As to the kind of experiment: Antagonist activity at dopamine D1 receptor assessed as inhibition of [35S]GTPgammaS binding in cell-based assay. Format: functional.
Test [3] deals with 5-hydroxytryptamine receptor 2A (Homo sapiens) (UniProt P28223). As to the kind of experiment: Displacement of [3H]Ketanserin from human 5HT2A receptor expressed in HEK293 cells at 10 uM. It is filed as cell-based.
Sequence of 5-hydroxytryptamine receptor 2A (Homo sapiens) (P28223 whole entry): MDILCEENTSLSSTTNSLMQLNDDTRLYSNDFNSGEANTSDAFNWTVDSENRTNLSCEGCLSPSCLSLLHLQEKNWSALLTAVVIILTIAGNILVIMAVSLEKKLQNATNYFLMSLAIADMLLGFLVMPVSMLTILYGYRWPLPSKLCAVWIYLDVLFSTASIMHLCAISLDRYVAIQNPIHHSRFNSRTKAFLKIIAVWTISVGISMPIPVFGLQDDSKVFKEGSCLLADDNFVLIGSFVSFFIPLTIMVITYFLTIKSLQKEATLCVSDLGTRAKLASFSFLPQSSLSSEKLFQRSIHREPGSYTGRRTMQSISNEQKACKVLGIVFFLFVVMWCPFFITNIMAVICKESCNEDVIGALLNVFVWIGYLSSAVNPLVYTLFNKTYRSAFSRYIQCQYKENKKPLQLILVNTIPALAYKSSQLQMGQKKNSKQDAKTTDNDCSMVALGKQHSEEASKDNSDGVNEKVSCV
For test [4], the target named is T2, 5-hydroxytryptamine receptor 1A (Homo sapiens) (UniProt P08908).
T2 sequence (whole entry): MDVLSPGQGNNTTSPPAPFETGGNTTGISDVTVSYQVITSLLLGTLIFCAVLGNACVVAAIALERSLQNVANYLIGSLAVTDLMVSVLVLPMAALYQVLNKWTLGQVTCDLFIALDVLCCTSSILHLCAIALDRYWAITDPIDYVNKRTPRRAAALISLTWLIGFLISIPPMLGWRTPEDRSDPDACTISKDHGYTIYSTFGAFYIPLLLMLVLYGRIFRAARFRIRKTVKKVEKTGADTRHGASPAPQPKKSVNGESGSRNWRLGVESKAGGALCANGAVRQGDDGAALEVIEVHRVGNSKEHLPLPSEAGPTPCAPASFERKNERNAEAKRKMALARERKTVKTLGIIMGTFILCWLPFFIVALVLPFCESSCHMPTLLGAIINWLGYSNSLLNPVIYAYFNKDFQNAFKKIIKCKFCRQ
Briefly: Displacement of [3H]-8-OH-DPAT from human 5HT1A receptor expressed in HEK293 cells at 10 uM. Format: cell-based.

For test [5], the target named is T3, D(2) dopamine receptor (Homo sapiens, UniProt P14416). As to the kind of experiment: Displacement of [3H]Spiprone from human dopamine D2 receptor expressed in HEK293 cells at 10 uM. Format: cell-based.
T3 sequence (P14416 whole entry): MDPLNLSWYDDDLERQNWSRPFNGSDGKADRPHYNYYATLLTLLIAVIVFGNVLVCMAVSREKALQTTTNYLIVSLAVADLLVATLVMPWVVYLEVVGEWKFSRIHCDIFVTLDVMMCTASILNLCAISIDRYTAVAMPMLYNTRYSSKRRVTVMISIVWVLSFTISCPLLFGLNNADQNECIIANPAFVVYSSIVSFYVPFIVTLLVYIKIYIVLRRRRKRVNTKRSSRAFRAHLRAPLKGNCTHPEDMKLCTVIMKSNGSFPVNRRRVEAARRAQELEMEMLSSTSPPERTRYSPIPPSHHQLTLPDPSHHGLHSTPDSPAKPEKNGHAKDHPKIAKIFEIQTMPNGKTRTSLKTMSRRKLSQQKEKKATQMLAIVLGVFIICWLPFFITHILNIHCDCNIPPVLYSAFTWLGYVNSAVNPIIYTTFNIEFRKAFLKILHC
The target of test [6] is T1, D(1A) dopamine receptor. Briefly: Antagonist activity at dopamine D1 receptor assessed as inhibition of [35S]GTPgammaS binding in cell-based assay relative to control. It is filed as functional. For orientation: GTPγS is a poorly hydrolysed GTP analogue; its binding reports G protein activation.
Test [7] deals with T1, D(1A) dopamine receptor. Briefly: Displacement of [3H]SCH23390 from human dopamine D1 receptor expressed in HEK293 cells at 10 uM. It is filed as cell-based.
The target of test [8] is T3, D(2) dopamine receptor. As to the kind of experiment: Displacement of [3H]Spiprone from human dopamine D2 receptor expressed in HEK293 cells. Format: cell-based.
In test [9] the target is T1, D(1A) dopamine receptor. Briefly: Agonist activity at dopamine D1 receptor assessed as [35S]GTPgammaS binding in cell-based assay relative to control. It is filed as functional.
The target of test [10] is D(1A) dopamine receptor (Rattus norvegicus, UniProt P18901). Briefly: Agonist activity at D1 receptor in rat striatum assessed as synaptosomal adenylate cyclase activity. It is filed as functional, tissue-based.
Sequence of D(1A) dopamine receptor (Rattus norvegicus, UniProt P18901) (P18901 whole entry): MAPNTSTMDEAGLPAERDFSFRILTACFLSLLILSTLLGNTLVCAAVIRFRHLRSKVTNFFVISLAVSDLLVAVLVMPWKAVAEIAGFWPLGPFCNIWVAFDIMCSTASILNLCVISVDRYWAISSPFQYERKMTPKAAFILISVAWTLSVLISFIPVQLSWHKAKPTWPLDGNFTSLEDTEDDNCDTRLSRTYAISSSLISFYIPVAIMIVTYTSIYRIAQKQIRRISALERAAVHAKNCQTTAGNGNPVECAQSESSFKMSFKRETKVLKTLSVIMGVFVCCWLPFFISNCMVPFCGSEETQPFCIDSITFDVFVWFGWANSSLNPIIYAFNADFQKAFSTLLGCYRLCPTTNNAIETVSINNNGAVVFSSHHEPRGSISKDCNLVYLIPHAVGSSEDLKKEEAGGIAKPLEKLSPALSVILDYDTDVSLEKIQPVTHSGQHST
Test [11] concerns the target T4, 5-hydroxytryptamine receptor 1A (Homo sapiens, UniProt P08908).
T4 sequence (P08908 whole entry): T2 sequence (whole entry)
Briefly: Displacement of [3H]-8-OH-DPAT from human 5HT1A receptor expressed in HEK293 cells. Format: cell-based.

A word on the IC50: it is the concentration that gives 50% inhibition. By Ki is commonly meant a measure of affinity in units of concentration, obtained from inhibition or displacement. What is called inhibition is the relative decrease from the control value, in per cent. Usually Emax stands for the greatest response seen or fitted, relative to the assay's reference. Broadly, the EC50 is the concentration that produces a half-maximal response.

T1 sequence (P21728 whole entry): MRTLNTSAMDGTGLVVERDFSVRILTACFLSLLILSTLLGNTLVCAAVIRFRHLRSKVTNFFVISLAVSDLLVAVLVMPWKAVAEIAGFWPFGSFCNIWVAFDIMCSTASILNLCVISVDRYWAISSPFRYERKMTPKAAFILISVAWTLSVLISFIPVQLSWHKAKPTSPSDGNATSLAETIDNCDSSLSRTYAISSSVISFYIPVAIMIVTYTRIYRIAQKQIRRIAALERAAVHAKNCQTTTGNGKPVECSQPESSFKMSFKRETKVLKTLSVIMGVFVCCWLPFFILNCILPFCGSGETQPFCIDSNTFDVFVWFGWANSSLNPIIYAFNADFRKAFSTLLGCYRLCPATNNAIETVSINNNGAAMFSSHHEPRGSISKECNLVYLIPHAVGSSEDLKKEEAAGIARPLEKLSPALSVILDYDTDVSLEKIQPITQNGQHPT

Regarding `COc1cc2c(c(OC)c1)CN1CCc3cc(OC)c(OC)c(OC)c3[C@@H]1C2`, the IC50 on D(1A) dopamine receptor [1] came to 0.0454 µM; at D(1A) dopamine receptor [2], 11.8 µM. On D(1A) dopamine receptor [1], this compound displayed a Ki of 0.0238 µM. Besides, the inhibition in test [3] was 48.8%; in test [4], 66.9%; at D(2) dopamine receptor [5], 51.7%. In addition, the Imax at D(1A) dopamine receptor [6] was determined as 82.5%.
Consider `COc1cc2c(c(OC)c1)CN1CCc3cc(OC)c(OCc4ccccc4)c(OC)c3[C@@H]1C2`, for which the inhibition at D(1A) dopamine receptor [7] was 59.3%; in test [3] it was 69.1%; in test [4], 43.7%; on D(2) dopamine receptor [5], 54.2%.
Consider `COc1cc2c(cc1O)[C@@H]1Cc3cc(C)cc(C)c3CN1CC2`, for which the IC50 at D(1A) dopamine receptor [1] came to 0.0564 µM; at D(2) dopamine receptor [8] it was 0.456 µM. For the same compound, the values for the inhibitory constant (Ki) on D(1A) dopamine receptor [1] and on D(2) dopamine receptor [8] were 0.0289 µM and 0.161 µM, respectively. For the same compound, the inhibition in test [3] is 27.1%; in test [4] it was 74.5%.
With `Oc1cc2c(cc1O)C(c1ccccc1)CNCC2` (stereo not given), the Emax at D(1A) dopamine receptor [9] was determined as 100%.
As for `COc1cc2c(c(OC)c1)CN1CCc3cc(OC)cc(OC)c3[C@@H]1C2`, the IC50 at D(1A) dopamine receptor [1] amounted to 0.0143 µM; at D(1A) dopamine receptor [2], 23.3 µM. Moreover, the affinity at D(1A) dopamine receptor [1] corresponds to a Ki of 0.00797 µM. Moreover, the inhibition worked out at 25% in test [3], 61.7% in test [4] and 81.9% at D(2) dopamine receptor [5]. Besides, the Imax at D(1A) dopamine receptor [6] was 94.2%.
Take `COc1cc2c(c(OC)c1)CN1CCc3cc(OC)c(O)cc3[C@@H]1C2`: the results for the half-maximal inhibitory concentration (IC50) on D(1A) dopamine receptor [1] and on D(1A) dopamine receptor [2] were 0.00486 µM and 1.38 µM, respectively. The results for the inhibition (in [3]; in [4]; at D(2) dopamine receptor [5]) were 32.4%, 56.9% and 83.3%, respectively. Also, the Imax at D(1A) dopamine receptor [6] amounted to 94.3%.
Consider `CN1CCc2cc(Cl)c(O)cc2[C@@H](c2ccccc2)C1`, for which the Imax at D(1A) dopamine receptor [6] came to 80%.
Consider `COc1ccc2c(c1)C[C@H]1c3cc(OC)c(OC)cc3CCN1C2`, for which the inhibition was determined as 81.9% on D(1A) dopamine receptor [7], 33.5% in [3], 57.4% in test [4] and 10.2% at D(2) dopamine receptor [5].
Turning to `COc1ccc(OC)c2c1C[C@H]1c3c(OC)cc(OC)c(CO)c3CCN1C2`, the inhibition at D(1A) dopamine receptor [7] came to 48.8%; in test [3], 25.3%; in [4] it was 33.1%.
Turning to `COc1cc2c(cc1O)[C@@H]1Cc3ccc(O)c(OC)c3CN1CC2` [STEPHOLIDINE], the IC50 on D(1A) dopamine receptor [1] stood at 0.0123 µM; on D(2) dopamine receptor [8], 0.105 µM. The results for the Ki at D(1A) dopamine receptor [1] and on D(2) dopamine receptor [8] were 0.00623 µM and 0.0562 µM, respectively. Moreover, on D(1A) dopamine receptor [10], the half-maximal effective concentration (EC50) was found to be 41.1 µM. Besides, the inhibition in [3] is 45.6%; in test [4], 89.3%.
`COc1cc(OC)c2c(c1CO)C[C@H]1c3cc4c(cc3CCN1C2)OCO4` registered an IC50 on D(1A) dopamine receptor [1] of 0.324 µM. For the same compound, the Ki on D(1A) dopamine receptor [1] came to 0.182 µM; in test [11], 0.6 µM. Also, the inhibition in test [3] was 56.2%; on D(2) dopamine receptor [5], 41.8%.
On to `COc1ccc2c(c1)C[C@H]1c3cc(O)c(OC)cc3CCN1C2`, for which the IC50 at D(1A) dopamine receptor [1] is 0.0689 µM; at D(2) dopamine receptor [8] it was 0.873 µM. The Ki at D(1A) dopamine receptor [1] was found to be 0.0358 µM; at D(2) dopamine receptor [8], 0.347 µM. In addition, the inhibition in test [3] is 68.7%; in [4], 65.6%.
As for `COc1ccc2c(c1)C[C@H]1c3c(OC)cc(OC)c(CO)c3CCN1C2`, the inhibition came to 56% on D(1A) dopamine receptor [7], 21.4% in test [3] and 1.34% in test [4].
`COc1cc2c(c(OC)c1)CN1CCc3cc(OC)c(OC)cc3[C@@H]1C2` displayed an IC50 at D(1A) dopamine receptor [1] of 0.189 µM. For the same compound, the Ki at D(1A) dopamine receptor [1] was found to be 0.106 µM. Also, the results for the inhibition (in [3]; in [4]; on D(2) dopamine receptor [5]) were 17.2%, 66.9% and 3.48%, respectively.
At D(1A) dopamine receptor [1], `COc1cc2c(c(OC)c1)CN1CCc3cc(OC)c(O)c(OC)c3[C@@H]1C2` registered an IC50 of 0.0981 µM. Moreover, at D(1A) dopamine receptor [1], the Ki is 0.0523 µM. The inhibition in test [3] was 51.6%; in test [4] it was 44.9%; on D(2) dopamine receptor [5], 58.8%.
Take `COc1cc2c(c(OC)c1OC)[C@@H]1Cc3cc4c(cc3CN1CC2)OCO4`: the inhibition at D(1A) dopamine receptor [7] is 43.4%; in test [3], 72.7%; in test [4], 70.3%; on D(2) dopamine receptor [5], 70.7%.
On D(1A) dopamine receptor [1], `COc1cc2c(cc1OC)C1Cc3cc(C)cc(C)c3CN1CC2` (racemic) returned an IC50 of 2.92 µM. Besides, the affinity on D(1A) dopamine receptor [1], expressed as Ki, was 1.44 µM. Further, the inhibition came out at 19.9% in test [3], 28.4% in test [4] and 77.4% on D(2) dopamine receptor [5].
With `COc1cc2c(cc1OC)[C@@H]1Cc3cc(C)cc(C)c3CN1CC2`, the IC50 on D(1A) dopamine receptor [1] is 0.684 µM; at D(2) dopamine receptor [8], 1.16 µM. The Ki was determined as 0.338 µM at D(1A) dopamine receptor [1] and 0.224 µM on D(2) dopamine receptor [8]. In addition, the inhibition came out at 36.5% in test [3] and 54.8% in [4].
`COc1ccc2c(c1)C[C@H]1c3cc(OCc4ccccc4)c(OC)cc3CCN1C2`: the inhibition stood at 86% at D(1A) dopamine receptor [7], 13.5% in test [3], 37.3% in test [4] and 36% on D(2) dopamine receptor [5].
`COc1cc2c(cc1O)[C@@H]1Cc3c(CO)c(OC)cc(OC)c3CN1CC2`: the values for the IC50 at D(1A) dopamine receptor [1] and at D(2) dopamine receptor [8] were 0.0307 µM and 0.514 µM, respectively. Further, the Ki at D(1A) dopamine receptor [1] came out at 0.0173 µM; on D(2) dopamine receptor [8], 0.147 µM. The values for the inhibition in [3] and in [4] were 18.4% and 80.9%, respectively.
For the compound `COc1cc(OC)c2c(c1CO)C[C@H]1c3c(cc(OC)c(OC)c3OC)CCN1C2`, the inhibition is 7.37% on D(1A) dopamine receptor [7], 59.7% in test [3], 67.4% in test [4] and 47.2% at D(2) dopamine receptor [5].
For `COc1cc2c(cc1OC)[C@@H]1Cc3c(CO)c(OC)cc(OC)c3CN1CC2`, at D(1A) dopamine receptor [1], the IC50 came to 0.114 µM. The Ki at D(1A) dopamine receptor [1] turned out to be 0.0641 µM; in test [11] it was 0.73 µM. Besides, the values for the inhibition (in [3]; on D(2) dopamine receptor [5]) were 24.1% and 39.5%, respectively.
As to `COc1ccc2c(c1)C[C@H]1c3cc4c(cc3CCN1C2)OCO4`, the inhibition at D(1A) dopamine receptor [7] amounted to 83.2%; in [3], 20.8%; in test [4], 5.48%; on D(2) dopamine receptor [5], 22.7%.
Turning to `COc1cc(OC)c2c(c1CO)CCN1Cc3cc4c(cc3C[C@@H]21)OCO4`, the inhibition was found to be 17.4% on D(1A) dopamine receptor [7] and 16.9% in test [3].
`COc1cc2c(c(OC)c1)CN1CCc3cc4c(cc3[C@@H]1C2)OCO4` gave an IC50 at D(1A) dopamine receptor [1] of 0.142 µM. For the same compound, at D(1A) dopamine receptor [1], the Ki was determined as 0.0745 µM. Besides, the inhibition in test [3] worked out at 31.3%; in test [4], 57.6%; on D(2) dopamine receptor [5], 1.02%.
